Assay results published in US20030149075A1, “Zoniporide mesylate pharmaceutical compositions and processes for improving solubility of zoniporide” (Pfizer Inc., priority 2002, published 2003).
Where a name gives a salt, the structure may show the parent alone.

What was measured:
[1] = Aqueous solubility of Zoniporide / Zoniporide mesylate, including pH adjustment with acids; assay type: physicochemical
From the text: The most commercially feasible and the most pharmaceutically acceptable means, in this particular instance, for increasing solubility of Zoniporide was via pH adjustment.
Further additions of methanesulfonic acid further improved solubility with decreasing pH.
The phrase “increase (or increasing) the solubility” means increasing the solubility of Zoniporide or Zoniporide mesylate to a value greater than the solubility of Zoniporide mesylate in water (i.e. greater than about 18 mgA/mL).
(§1) The use of methanesulfonic acid to lower the pH of pharmaceutical formulations is non-traditional in the pharmaceutical field. […] Typically, the pH of pharmaceutical intravenous formulations is not lower than about pH of 3, because of injection-site toleration problems that are inherent in low pH formulations. […] Reducing the pH below about 2, however, can further increase the concentration of Zoniporide, but may cause injection site toleration issues.

[2] = Injection-site toleration of low-pH Zoniporide formulations; assay type: in vivo; details: formulations adjusted with methanesulfonic acid to as low as about pH 2
From the text: as §1

Row | Structure (SMILES) | solubility of Zoniporide mesylate in water ([1]; in water, mgA/mL = mg/mL of active compound Zoniporide) | change in solubility on pH adjustment with methanesulfonic acid ([1]; addition of methanesulfonic acid, further additions further improved solubility with decreasing pH) | change in solubility on pH adjustment with typical pH adjusters ([1]; hydrochloric acid, sulfuric acid, phosphoric acid, aqueous solution, pH range acceptable for infusion) | injection-site toleration [2]
1 | N=C(N)NC(=O)c1cnn(-c2cccc3ncccc23)c1C1CC1 [Zoniporide mesylate] | about 18 mgA/mL | – | – | –
2 | N=C(N)NC(=O)c1cnn(-c2cccc3ncccc23)c1C1CC1 [Zoniporide, N-(5-cyclopropyl-1-quinolin-5-yl-1H-pyrazole-4-carbonyl)-guanidine] | – | increase in solubility | no significant increase in solubility | without the expected injection-site toleration issues
